Experimental data reported in publication PMC8037310, “Thrombin-Derived Peptides Potentiate the Activity of Gram-Positive-Specific Antibiotics against Gram-Negative Bacteria” (Molecules, 2021).
Values joined by “and” are separate entries in the source; they are usually repeats but may differ in a detail not shown here. Equal entries are not always repeated. Where two headings read alike, the source gives them in different places. Square brackets hold non-standard residues; d marks the D form. Peptide text beside a SMILES is read from it.

Experiments:
[1] = tested on: E. coli BW25113; test: Checkerboard assay with erythromycin; type: cell-based, Escherichia coli; conditions: for MSCery: erythromycin concentration in the combination with the synergist giving the lowest FICi, E. coli BW25113; for MIC of the peptide (MICpep): synergist alone, from checkerboard with erythromycin; for MIC of the peptide (MICpep) / MSCpeptide, minimum synergistic concentration: 20 h 37 °C; for MSCpeptide, minimum synergistic concentration: synergist concentration in the combination with erythromycin giving the lowest FICi, OD600; for FICi: with erythromycin vs E. coli BW25113, synergy defined as FICi ≤ 0.5
Experimental: (§1) All peptides were screened for antimicrobial activity against E. coli BW25113, E. coli ATCC25922, and E. coli W3110. A select group of the peptides was further tested against E. coli mcr-1, E. coli EQASmcr-1 (EQAS 2016 412016126), E. coli EQASmcr-2 (EQAS 2016 KP37), E. coli EQASmcr-3 (EQAS 2017 2013-SQ352), K. pneumoniae ATCC13883, P. aeruginosa ATCC27853, and A. baumannii ATCC17978. The antimicrobial assay was performed according to CLSI guidelines. Bacteria were plated out directly from their glycerol stocks on blood agar plates, incubated overnight at 37 °C, and then kept in the fridge. The blood agar plates were only used for 2 weeks and then replaced.
(§2) One colony from a blood agar plates was inoculated in Lysogeny Broth (LB) at 37 °C until a 0.5 optical density at 600 nm (OD600) was reached (compared to the sterility control of LB). The bacterial suspension was diluted in fresh LB to 2.0 × 10^6 CFU/mL. The serial dilutions were prepared in polypropylene microtiter plates: a stock of the test compounds was prepared with a 2x final concentration in LB. Moreover, 100 µL of the stock was added to the wells of the top row of which 50 µL was used for the serial dilution. The bottom row of each plate was used as the positive (50 µL of LB) and negative controls (100 µL of LB) (6 wells each). Furthermore, 50 µL of the 2.0 × 10^6 CFU/mL bacterial stock was added to each well except for the negative controls, adding up to a total volume of 100 µL per well. The plates were sealed with a breathable seal and incubated for 20 h at 37 °C and 600 rpm.
(§3) Two 96-well plates were required per compound. A serial dilution of the compound was performed on two plates from row A–G using with LB as medium. Row H was filled with 25 µL medium. On a separate plate a negative control (8 wells, 100 μL medium) was prepared. For all concentrations of antibiotic a specific stock was prepared. 25 µL medium was added to the 0 µg/mL antibiotic columns (plate I, column 1–3). Of each antibiotic stock 25 µL was added to three columns to obtain triplicates for every condition. Both plates contained 50 µL in each well to which 50 µL bacterial stock was added (see the protocol of the MIC assays) and the plates were sealed. After incubation for 20 h at 37 °C while shaking, the breathable seals were removed and the density of the bacterial suspensions measured at 600 nm (OD600) using a Tecan Spark plate reader. The OD600 values were transformed to a 2D gradient with the negative control as minimum and the positive control (wells G1, G2, and G3) as maximum in excel. The FICi was calculated using Equation (1) with a FICi ≤ 0.5 indicating synergy. FICi = (MSCa/MICa) + (MSCb/MICb),(1)
(§4) Calculation of the FICi: MSCa = concentration of the […] in combination with the antibiotic that results in the lowest FICi. MICa = MIC of the antibiotic without synergist (row G). MSCb = concentration of the synergist in combination with the antibiotic that results in the lowest FICi. MICb = MIC of the synergist itself (Column 1–3, plate I).

[2] = tested on: defibrinated sheep blood (red blood cells); test: Hemolysis assay; type: cell-based; conditions: 200 µg/mL compound, 20 h incubation at 37 °C with defibrinated sheep blood, PBS 0.002% Tween20, absorbance 415 nm, relative to 0.1% Triton X-100; n=3 technical replicates
Experimental: Defibrinated sheep blood (Thermo Fisher Scientific) and a phosphate-buffered saline (PBS) buffer containing 0.002% Tween20 were used in this assay. The red blood cells were washed with buffer followed by centrifugation (400 g for 15 min at 4 °C). The red blood cells were then normalized to obtain a positive control read-out around 2.5 at 415 nm to stay in the linear range with the maximum sensitivity. A serial dilution of the compounds (200–1.56 µg/mL, 75 µL) was prepared in a 96-well plate. Each plate contained a positive control (0.1% Triton X-100 final concentration, 75 µL) and the negative control (buffer, 75 µL). After addition of normalized blood cells (75 µL), the plates were incubated for 20 h at 37 °C at 500 rpm. The plates were centrifuged (800× g for 5 min at room temperature). For the next step flat-bottom polystyrene plates were prepared with 100 µL buffer in each well. Aliquots of 25 µL supernatant from the centrifuged plates were then transferred to their respective wells in the flat-bottom plate. Absorbance values where measured at 415 nm and corrected for background (negative control) and transformed to a percentage hemolysis relative to the positive control.

[3] = tested on: E. coli BW25113; type: cell-based, Escherichia coli; conditions: for MSCrif: rifampicin concentration in the combination giving the lowest FICi; for MSCrif / MSCpep: E. coli BW25113; for MICpep: synergist alone, E. coli BW25113, from checkerboard with rifampicin; for MSCpep: synergist concentration in the combination with rifampicin giving the lowest FICi
Experimental: as §1, §2, §3, §4

[4] = tested on: E. coli BW25113; test: microbe, parasite or virus in culture; type: cell-based, Escherichia coli; conditions: antibiotic without synergist, E. coli BW25113
Experimental: as §1, §2, §3, §4

MIC of the peptide (MICpep) ([1]; E. coli BW25113, LB) | MICpep [3] | MIC ([1]; Escherichia coli, antibiotic without synergist, E. coli BW25113, LB, read-out: MIC of erythromycin (MICery)) | MIC of erythromycin (MICery) ([1]; antibiotic without synergist, E. coli BW25113, LB) | MIC ([4]; Escherichia coli, read-out: MIC of novobiocin (MICnovo)) | MIC of novobiocin (MICnovo) [4] | Structure (SMILES) | MSCery [1] | MSCpeptide, minimum synergistic concentration ([1]; E. coli BW25113, LB) | Hemolysis [2] | FICi ([3]; BW25113, 20 h) | MSCrif [3] | MSCpep [3] | FICi [1] | FICi ([3]; with rifampicin vs E. coli BW25113, synergy defined as FICi ≤ 0.5)
100 µg/mL | 50 µg/mL | – | – | – | – | CC[C@@H](C)[C@@H](N)C(=O)N[C@@H](C(=O)N[C@H](CCCCN)C(=O)N[C@H](CCC(N)=O)C(=O)N[C@@H](C(=O)N[C@H](Cc1c[nH]c2ccccc12)C(=O)N[C@H](CCCCN)C(=O)N[C@H](CCCCN)C(=O)N[C@H](CC(C)C)C(=O)N[C@H](CCCNC(=N)N)C(=O)N[C@H](Cc1ccccc1)C(=O)N[C@@H](C(N)=O)C(C)C)[C@H](C)CC)C(C)C [peptide 22] (H-[dI][dV][dK][dQ][dI][dW][dK][dK][dL][dR][dF][dV]-NH2) | 6.25 µg/mL | 6.25 µg/mL | 3.2% and 3% | 0.1406 | 0.25 µg/mL | 6.25 µg/mL | – | –
50 µg/mL | 200 µg/mL | – | – | – | – | CC[C@H](C)[C@H](NC(=O)[C@@H](NC(=O)[C@H](CCCCN)NC(=O)[C@H](CCC(N)=O)NC(=O)[C@@H](NC(=O)[C@H](Cc1c[nH]c2ccccc12)NC(=O)[C@H](CCCCN)NC(=O)[C@H](CCCCN)NC(=O)[C@H](CC(C)C)NC(=O)[C@H](CCCNC(=N)N)NC(=O)[C@H](C)NC(=O)[C@@H](N)C(C)C)[C@@H](C)CC)C(C)C)C(N)=O [peptide 9] (H-VARLKKWIQKVI-NH2) | 12.5 µg/mL | 3.125 µg/mL | 0.1% and 0% | 0.1406 | – | 25 µg/mL | 0.1250 | –
12.5 µg/mL | 12.5 µg/mL | – | – | – | – | CC[C@H](C)[C@H](NC(=O)[C@@H](NC(=O)[C@H](CCCCN)NC(=O)[C@H](CCC(N)=O)NC(=O)[C@@H](NC(=O)[C@H](Cc1c[nH]c2ccccc12)NC(=O)[C@H](CCCCN)NC(=O)[C@H](CCCCN)NC(=O)[C@H](CC(C)C)NC(=O)[C@H](CCCNC(=N)N)NC(=O)[C@H](Cc1ccccc1)NC(=O)[C@H](C)N)[C@@H](C)CC)C(C)C)C(N)=O [peptide 8] (H-AFRLKKWIQKVI-NH2) | 12.5 µg/mL | 1.563 µg/mL | 1.5% and 2% | 0.1406 | – | 1.563 µg/mL | – | –
25 µg/mL | 25 µg/mL | – | – | – | – | CC[C@H](C)[C@H](NC(=O)[C@@H](NC(=O)[C@H](CCCCN)NC(=O)[C@H](CCC(N)=O)NC(=O)[C@@H](NC(=O)[C@H](Cc1c[nH]c2ccccc12)NC(=O)[C@H](CCCCN)NC(=O)[C@H](C)NC(=O)[C@H](CC(C)C)NC(=O)[C@H](CCCNC(=N)N)NC(=O)[C@H](Cc1ccccc1)NC(=O)[C@@H](N)C(C)C)[C@@H](C)CC)C(C)C)C(N)=O [compound 12] (H-VFRLAKWIQKVI-NH2) | 1.563 µg/mL | 12.5 µg/mL | 30.2% and 30% | – | – | 12.5 µg/mL | > 0.5 | > 0.5
200 µg/mL | 200 µg/mL | – | – | – | – | CC[C@H](C)[C@H](NC(=O)[C@H](Cc1c[nH]c2ccccc12)NC(=O)[C@H](CCCCN)NC(=O)[C@H](CCCCN)NC(=O)[C@H](CC(C)C)NC(=O)[C@H](CCCNC(=N)N)NC(=O)[C@H](Cc1ccccc1)NC(=O)[C@@H](NC(=O)[C@@H](N)Cc1c[nH]cn1)C(C)C)C(=O)N[C@@H](CCC(N)=O)C(=O)N[C@@H](CCCCN)C(=O)N[C@H](C(=O)N[C@H](C(=O)N[C@@H](CC(=O)O)C(=O)N[C@@H](CCC(N)=O)C(=O)N[C@@H](Cc1ccccc1)C(=O)NCC(=O)N[C@@H](CCC(=O)O)C(=O)O)[C@@H](C)CC)C(C)C [peptide 2] (H-HVFRLKKWIQKVIDQFGE-OH) | 25 µg/mL | 50 µg/mL | – | – | 0.5 µg/mL | 50 µg/mL | 0.3750 | –
50 µg/mL | 50 µg/mL | – | – | – | – | CC[C@H](C)[C@H](NC(=O)[C@@H](NC(=O)[C@H](CCCCN)NC(=O)[C@H](CCC(N)=O)NC(=O)[C@@H](NC(=O)[C@H](Cc1c[nH]c2ccccc12)NC(=O)[C@H](CCCCN)NC(=O)[C@H](CCCCN)NC(=O)[C@H](CC(C)C)NC(=O)[C@H](CCCNC(=N)N)NC(=O)[C@H](Cc1ccccc1)NC(=O)[C@@H](NC(C)=O)C(C)C)[C@@H](C)CC)C(C)C)C(N)=O [peptide 7] (Ac-VFRLKKWIQKVI-NH2) | 3.125 µg/mL | 12.5 µg/mL | 4.6% and 5% | – | – | 12.5 µg/mL | – | –
– | – | – | – | – | – | CC[C@H](C)[C@H](NC(=O)[C@H](Cc1c[nH]c2ccccc12)NC(=O)[C@H](CCCCN)NC(=O)[C@H](CCCCN)NC(=O)[C@H](CC(C)C)NC(=O)[C@H](CCCNC(=N)N)NC(=O)[C@H](Cc1ccccc1)NC(=O)[C@@H](NC(=O)[C@@H](N)Cc1cnc[nH]1)C(C)C)C(=O)N[C@@H](CCC(N)=O)C(=O)N[C@@H](CCCCN)C(=O)N[C@H](C(=O)N[C@H](C(=O)N[C@@H](CC(=O)O)C(=O)N[C@@H](CCC(N)=O)C(=O)N[C@@H](Cc1ccccc1)C(=O)NCC(=O)N[C@@H](CCC(=O)O)C(=O)O)[C@@H](C)CC)C(C)C [peptide 2] (H-HVFRLKKWIQKVIDQFGE-OH) | – | – | 8.7% and 9% | – | – | – | – | –
– | – | 100 to 200 µg/mL | > 100 µg/mL and 200 µg/mL | – | – | CC[C@H]1OC(=O)[C@H](C)[C@@H](O[C@H]2C[C@@](C)(OC)[C@@H](O)[C@H](C)O2)[C@H](C)[C@@H](O[C@@H]2O[C@H](C)C[C@H](N(C)C)[C@H]2O)[C@](C)(O)C[C@@H](C)C(=O)[C@H](C)[C@@H](O)[C@]1(C)O [erythromycin, reference compound] | – | – | – | – | – | – | – | –
– | – | – | – | > 200 µg/mL | > 200 µg/mL | CO[C@@H]1[C@@H](OC(N)=O)[C@@H](O)[C@H](Oc2ccc3c(O)c(NC(=O)c4ccc(O)c(CC=C(C)C)c4)c(=O)oc3c2C)OC1(C)C [novobiocin, reference compound] | – | – | – | – | – | – | – | –
